Source: US20240246941A1, “SUBSTITUTED 4-(3-AMINOPROP-1-YL)AMINOQUINOLINE ANALOGS AS MODULATORS OF MELANOMA-ASSOCIATED ANTIGEN 11 UBIQUITIN LIGASE” (ST. JUDE CHILDREN'S RESEARCH HOSPITAL, INC., priority 2020, published 2024)

What follows are compounds tested against interaction between GST-MAGEA11 MHD and FAM-PCF11_4 peptide (MAGE-A11:PCF11) (Homo sapiens (Human), UniProt P43364) (assay: TR-FRET dose response competition assay for disruption of MAGE-A11:PCF11 binding). Conditions: Dose response TR-FRET screening of nine scaffold groups against MAGE-A11:PCF11; read-out: consensus IC50.
Sequence of interaction between GST-MAGEA11 MHD and FAM-PCF11_4 peptide (MAGE-A11:PCF11) (P43364 218-429): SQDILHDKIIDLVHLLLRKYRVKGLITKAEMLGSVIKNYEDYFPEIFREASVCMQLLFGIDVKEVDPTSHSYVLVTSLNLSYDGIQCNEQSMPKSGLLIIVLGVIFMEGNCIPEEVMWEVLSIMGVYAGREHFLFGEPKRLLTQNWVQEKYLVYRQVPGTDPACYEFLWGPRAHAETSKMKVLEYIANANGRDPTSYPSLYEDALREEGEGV
Summary of the method: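 Competition TR-FRET at room temperature in 50 mM Tris pH 7.5, 20 mM MgCl2, 0.1 mg/ml BSA, 1 mM DTT: final 5 nM GST-MAGEA11 MHD, 5 nM Tb-anti-GST, 200 nM FAM-PCF11_4, 90 min. Ratio 520/490 nm converted to % inhibition; IC50 from sigmoidal fit.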

| Structure (SMILES) | IC50 [µM] |
| --- | --- |
| COc1cccc(CNCCCNc2ccnc3cc(-c4ccc5c(c4)OCO5)ccc23)c1O [SJ000311291-1] | 24.6 |
| CCC(CO)NC1=C(Cl)C(=O)c2ccccc2C1=O (stereo not shown) [SJ000148678-1] | 69.9 |
| COCCn1c(-c2ccc(OC)cc2)nc2c1c(=O)[nH]c(=O)n2CC(C)C [SJ000425224-1] | 69.9 |
| COc1ccc(F)cc1CNCCCNc1ccnc2cc(-c3ccc4c(c3)OCO4)ccc12 [SJ000311293-1] | 29.9 |
| COc1ccc(F)c(CNCCCNc2ccnc3cc(Cl)ccc23)c1 [SJ000521030-1] | 69.9 |
| O=[N+]([O-])c1ccc(CNCCCNc2ccnc3cc(Cl)ccc23)cc1O [SJ000311191-1] | 69.9 |
| CCCCCn1c(-c2cccc(F)c2)nc2c1c(=O)[nH]c(=O)n2CCCC [SJ000460165-1] | 69.9 |
| COc1cc2nc(N3CCN(C(=O)C4COc5ccccc5O4)CC3)nc(N)c2cc1OC (stereo not shown) [SJ000113084-10] | 57.1 |
| CN(Cc1ccno1)C(=O)c1ccc2c(c1)c1ccccc1n2C [SJ000516830-1] | 69.9 |
| Cn1c(-c2ccc(OCC(=O)O)cc2)nc2c1c(=O)[nH]c(=O)n2Cc1ccccc1 [SJ000441071-1] | 69.9 |
| COc1ccc(F)cc1CNCCCNc1ccnc2cc(Oc3ccccc3)ccc12 [SJ000311209-1] | 29 |
| COc1ccc(Nc2nc(N)c3ccccc3n2)cc1 [SJ000067204-1] | 69.9 |
| COc1cccc(CNCCCNc2ccnc3cc(-c4ccc(C(F)(F)F)cc4)ccc23)c1O [SJ000311279-1] | 9.52 |
| COP(=O)(OC)c1nc(-c2ccccc2)oc1N1CCOCC1 [SJ000124835-1] | 69.9 |
| CN(C)c1cccc(Oc2ccc3c(NCCCNCc4cccc5c4OCO5)ccnc3c2)c1 [SJ000311232-1] | 69.9 |
| Cc1ccc(S(=O)(=O)c2nc(-c3ccccc3Cl)oc2N2CCOCC2)cc1 [SJ000230856-1] | 4.34 |
| COc1ccc(F)cc1CNCCCNc1ccnc2cc(Cc3ccccc3)ccc12 [SJ000311309-1] | 18.3 |
| CCCn1c(=O)[nH]c(=O)c2c1nc(-c1ccc(OC)c(Br)c1)n2CCOC [SJ000378893-1] | 69.9 |
| COc1ccc(F)cc1CNCCCNc1ccnc2cc(CCc3ccccc3)ccc12 [SJ000311256-1] | 37.1 |
| COc1ccccc1CNCCCNc1ccnc2cc(Cl)ccc12 [SJ000311185-1] | 69.9 |

| Structure (SMILES) | IC50 [µM] |
| --- | --- |
| CCCNC1=C(Cl)C(=O)c2ccccc2C1=O [SJ000141460-3] | 69.9 |
| COc1ccc(C2Nc3ccccc3C(=O)N2Cc2ccccc2)cc1 (stereo not shown) [SJ000551209-1] | 69.9 |
| O=S(=O)(c1ccc(Cl)cc1)c1nc(-c2ccccc2Br)oc1N1CCOCC1 [SJ000184129-1] | 69.9 |
| Fc1cccc(CNCCCNc2ccnc3cc(Cl)ccc23)c1 [SJ000523061-1] | 69.9 |
| CCn1c2ccccc2c2cc(CNCCc3ccc4c(c3)OCO4)ccc21 [SJ000112461-1] | 69.9 |
| Cc1ccccc1NC1=C(N)C(=O)c2ccccc2C1=O [SJ000562551-1] | 72.2 |
| COc1cccc(CNCCCNc2ccnc3cc(Oc4cccc(N(C)C)c4)ccc23)c1O [SJ000311231-1] | 69.9 |
| O=C(NCC(O)CO)c1ccc2[nH]c3ccccc3c2c1 (stereo not shown) [SJ000053810-1] | 69.9 |
| CN(C)c1ccc(CNCCCNc2ccnc3cc(Cl)ccc23)c2ccccc12 [SJ000523054-1] | 69.9 |
| Cc1nc2cc(-c3ccccc3)sc2c(=O)n1N [SJ000296471-1] | 69.9 |
| CCC(CC)c1ccc2c(NCCCNCc3cccc(OC)c3O)ccnc2c1 [SJ000311267-1] | 9.95 |
| COc1ccc(-c2cc3ncn(CC(=O)NCc4ccc(C)cc4)c(=O)c3s2)cc1 [SJ000445282-1] | 69.9 |
| CCn1c2ccccc2c2cc(CNCCc3ccccc3)ccc21 [SJ000111712-1] | 69.9 |
| CCCn1c(=O)[nH]c(=O)c2c1nc(-c1cccc(C)c1)n2CCOC [SJ000423281-1] | 69.9 |
| Cc1ccc(S(=O)(=O)c2nc(-c3ccc(Cl)cc3)oc2N2CCOCC2)cc1 [SJ000230693-1] | 69.9 |
| COc1ccc(-c2cc3ncn(CC(=O)NCc4ccc(Cl)cc4)c(=O)c3s2)cc1 [SJ000457991-1] | 69.9 |
| CCCCn1c(=O)[nH]c(=O)c2c1nc(-c1ccc(O)c(OC)c1)n2CCC [SJ000429070-1] | 69.9 |
| O=C1c2ccccc2NC(c2ccc(Cl)c(Cl)c2)N1Cc1ccccc1 (stereo not shown) [SJ000551208-1] | 69.9 |
| CCC(COC(C)=O)NC1=C(Cl)C(=O)c2ccccc2C1=O (stereo not shown) [SJ000149466-1] | 17.2 |
| CC(NC1=C(Cl)C(=O)c2ccccc2C1=O)C(=O)O (stereo not shown) [SJ000244608-1] | 69.9 |

| Structure (SMILES) | IC50 [µM] |
| --- | --- |
| CNC1=C(Cl)C(=O)c2ccccc2C1=O [SJ000141461-1] | 69.9 |
| CCCN1C(=O)c2ccccc2NC1c1c(Cl)cccc1Cl (stereo not shown) [SJ000295321-1] | 69.9 |
| COc1ccc(C2Nc3ccccc3C(=O)N2CCCN2CCOCC2)cc1OC(F)F (stereo not shown) [SJ000803760-1] | 72.1 |
| Cc1cc(C)cc(Cc2ccc3c(NCCCNCc4cccc5c4OCO5)ccnc3c2)c1 [SJ000311320-1] | 16.3 |
| COc1ccc(F)cc1CNCCCNc1ccnc2cc(C3CCCCC3)ccc12 [SJ000311265-1] | 24.2 |
| Cc1cccc(NC2=C(Cl)C(=O)c3ccccc3C2=O)c1 [SJ000024925-1] | 69.9 |
| COc1ccc(-c2nc(C#N)c(N3CCOCC3)o2)cc1 [SJ000051527-1] | 69.9 |
| COc1ccc(C2Nc3ccccc3C(=O)N2Cc2ccc(F)cc2)cc1 (stereo not shown) [SJ000510742-1] | 69.9 |
| C=CCSc1nc2cc(-c3ccccc3)sc2c(=O)n1CCN1CCOCC1 [SJ000453564-1] | 69.9 |
| CCCCCOc1ccc(NC2=C(N)C(=O)c3ccccc3C2=O)cc1 [SJ000032723-1] | 69.9 |
| COc1ccccc1Oc1ccc2c(NCCCNCc3cccc(OC)c3O)ccnc2c1 [SJ000311211-1] | 69.9 |
| O=C1C(Cl)=C(NCCN2CCOCC2)C(=O)c2ncccc21 [SJ000312204-6] | 2.25 |
| COc1ccc(F)cc1CNCCCNc1ccnc2cc(-c3ccc(F)cc3)ccc12 [SJ000311241-1] | 38.9 |
| CCOc1ccc(-c2nc(C#N)c(N3CC(C)OC(C)C3)o2)cc1 (stereo not shown) [SJ000478356-1] | 69.9 |
| COc1ccc(F)cc1CNCCCNc1ccnc2cc(-c3ccccc3)ccc12 [SJ000311285-1] | 28.2 |
| CCCCn1c(=O)[nH]c(=O)c2c1nc(-c1ccc(F)cc1)n2CCOC [SJ000421862-1] | 69.9 |
| C=CCOc1ccc(-c2nc3c(c(=O)[nH]c(=O)n3Cc3ccccc3)n2CCCOC)cc1 [SJ000378880-1] | 69.9 |
| Cn1c(=O)c2nc(-c3ccccc3)[nH]c2n(C)c1=O [SJ000288094-2] | 69.9 |
| COc1cccc(CNCCCNc2ccnc3cc(Oc4ccccc4)ccc23)c1O [SJ000311207-1] | 69.9 |
| COc1ccc(Oc2ccc3c(NCCCNCc4cc(F)ccc4OC)ccnc3c2)cc1 [SJ000311221-1] | 46.4 |

Same assay, conditions: Table 5, dose response TR-FRET screening of 59 quinoline compounds against MAGE-A11:PCF11; read-out: TR-FRET IC50

| Structure (SMILES) | IC50 [µM] |
| --- | --- |
| CCCN(CCCNc1ccnc2cc(C(F)(F)F)ccc12)CC(CC)CC [SJ000361269-1] | > 70 |
| Clc1ccc2c(NCCCNCc3csc4ccccc34)ccnc2c1 [SJ000521033-1] | > 70 |
| COC(=O)CCCCCNCCCNc1ccnc2cc(Cl)ccc12 [SJ000521021-1] | 31.4 |
| C=C1C=C(C)C=C(C)C(CN(CCCNc2ccnc3cc(Cl)ccc23)Cc2ccccc2)=C1 [SJ000361169-2] | > 70 |
| Cc1cc(C)cc(Cc2ccc3c(NCCCNCc4ccco4)ccnc3c2)c1 [SJ000311318-2] | > 70 |
| FC(F)(F)c1ccc2c(NCCCNCc3cc(Br)cs3)ccnc2c1 [SJ000521056-1] | > 70 |

Same assay, conditions: Table 8, representative compounds; read-out: TR-FRET IC50

| Structure (SMILES) | IC50 [µM] |
| --- | --- |
| N#Cc1ccc(Cc2ccc3c(NCCCNCc4cccc5c4OCO5)ccnc3c2)cc1 [SJ000311304] | 66 |
| COc1cccc(CNCCCNc2ccnc3cc(Cc4ccccc4)ccc23)c1O [SJ000311307] | 69.9 |
| Fc1cccc(CNCCCNc2ccnc3cc(Cl)ccc23)c1 [SJ000523061] | 69.9 |
| Fc1ccc(Oc2ccc3c(NCCCNCc4cccc5c4OCO5)ccnc3c2)cc1 [SJ000311224] | 59.6 |
| Fc1ccc(Cc2ccc3c(NCCCNCc4cccc5c4OCO5)ccnc3c2)cc1 [SJ000311244] | 42.3 |
| Fc1ccccc1CNCCCNc1ccnc2cc(Cl)ccc12 [SJ000523060] | 69.9 |
| Oc1ccc(Br)c(CNCCCNc2ccnc3cc(Cl)ccc23)c1 [SJ000311194] | 69.9 |
| COc1ccc(OC(F)(F)F)cc1CNCCCNc1ccnc2cc(Cl)ccc12 [SJ000521035] | 69.9 |
| FC(F)(F)c1ccc2c(NCCCNCc3cccc4c3OCO4)ccnc2c1 [SJ000521048] | 69.9 |
| COc1ccc(F)cc1CNCCCNc1ccnc2cc(Oc3ccc(F)cc3)ccc12 [SJ000311225] | 69.9 |
| COc1cccc(CNCCCNc2ccnc3cc(C4CCCCC4)ccc23)c1O [SJ000311263] | 32.4 |
| COc1ccc(F)cc1CNCCCNc1ccnc2cc(Oc3ccccc3)ccc12 [SJ000311209] | 29 |
| COc1ccc(F)cc1CNCCCNc1ccnc2cc(Cc3ccc(F)cc3Cl)ccc12 [SJ000311325] | 17.6 |
| COc1ccc(O)c(C(C)NCCCNC2C=CN=C3C=C(Cl)C=CC32)c1 (stereo not shown) [SJ000311188] | 69.9 |
| COc1cc(C)c2c(Oc3cccc(C(F)(F)F)c3)c(OC)cc(NC(C)CCCN)c2n1 (stereo not shown) [SJ000518991] | > 65.7 |
| FC(F)(F)c1ccc2c(NCCCNCc3ccccc3)ccnc2c1 [SJ000361107] | 69.9 |
| COc1ccc(F)cc1CNCCCNc1ccnc2cc(Cc3ccc(C#N)cc3)ccc12 [SJ000311305] | 69.9 |
| c1cc(CNCCCNc2ccnc3cc(-c4ccc5c(c4)OCO5)ccc23)c2c(c1)OCO2 [SJ000311292] | 30.5 |
| COc1cc(Cc2ccc3c(NCCCNCc4cccc5c4OCO5)ccnc3c2)cc(OC)c1 [SJ000311312] | 31.3 |
